Laboratory results taken from article PMC7560981 (Medicinal chemistry research : an international journal for …, 2020).
Where two headings read alike, the source gives them in different places. One block for each compound: values may come before it.

Key:
[1] = target: H4-stimulated PARP1 (human Parp-1) (Homo sapiens, UniProt P09874); test: Inhibition of H4-stimulated PARP1 activation; assay type: biochemical; details: human Parp-1, NAD+
[2] = Stability in human liver microsomes; assay type: in vitro ADME; details: 1 μM, 37 °C
[3] = Stability in mouse liver microsomes; assay type: in vitro ADME; details: 1 μM, 37 °C
[4] = 90 min, pH 7.4
[5] = system: Nalm-6 isogenic RAD54−/− human leukemia cells; assay type: cell-based; details: clonogenic assay
[6] = Maximum kinetic aqueous solubility; details: 2% DMSO/phosphate buffer pH 7.4; theoretical maximum 200 μM
[7] = ref Karpova et a., 2019; cited from earlier work
cancer cell lines = details: ref Nieborowska-Skorska et al., 2019, cited from earlier work
[8] = ref Karpova et a., 2019; cited from earlier work; remark: listed apart in the source
[9] = H4/PARP Inhibition IC50, histone H4-coated plates
[10] = read-out: H4/PARP Inhibition IC50, histone H4-coated plates

Chain of H4-stimulated PARP1 (human Parp-1) (P09874 whole entry): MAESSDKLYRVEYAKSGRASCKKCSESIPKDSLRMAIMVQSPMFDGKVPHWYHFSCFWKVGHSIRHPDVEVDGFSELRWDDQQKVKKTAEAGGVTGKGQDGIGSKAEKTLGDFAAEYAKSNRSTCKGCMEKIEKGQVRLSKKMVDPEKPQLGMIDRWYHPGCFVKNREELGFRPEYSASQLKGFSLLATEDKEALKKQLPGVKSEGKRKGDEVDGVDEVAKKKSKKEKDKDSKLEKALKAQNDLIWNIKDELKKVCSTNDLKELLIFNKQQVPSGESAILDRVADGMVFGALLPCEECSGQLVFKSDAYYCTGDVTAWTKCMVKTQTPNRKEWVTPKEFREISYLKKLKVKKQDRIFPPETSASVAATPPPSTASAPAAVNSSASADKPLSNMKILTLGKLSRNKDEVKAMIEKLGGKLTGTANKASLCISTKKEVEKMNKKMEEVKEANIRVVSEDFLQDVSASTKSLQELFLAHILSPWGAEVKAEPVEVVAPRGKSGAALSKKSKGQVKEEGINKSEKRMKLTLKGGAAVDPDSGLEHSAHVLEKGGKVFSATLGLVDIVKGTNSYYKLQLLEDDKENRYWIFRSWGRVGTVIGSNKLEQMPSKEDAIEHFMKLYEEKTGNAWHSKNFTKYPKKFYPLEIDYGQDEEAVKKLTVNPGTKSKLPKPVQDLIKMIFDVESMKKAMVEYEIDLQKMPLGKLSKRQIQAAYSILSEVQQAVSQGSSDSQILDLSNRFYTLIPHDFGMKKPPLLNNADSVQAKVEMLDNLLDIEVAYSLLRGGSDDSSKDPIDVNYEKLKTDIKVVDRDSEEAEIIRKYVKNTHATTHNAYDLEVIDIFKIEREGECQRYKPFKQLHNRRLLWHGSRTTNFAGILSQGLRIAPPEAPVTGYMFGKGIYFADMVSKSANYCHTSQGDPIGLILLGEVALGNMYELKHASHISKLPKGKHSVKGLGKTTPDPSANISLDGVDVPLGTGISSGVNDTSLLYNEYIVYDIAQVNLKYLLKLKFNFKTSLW

IC50 [1, 9]: 142 nM
SMILES: CCC[N+]1(CC(=O)OC2CCCCCCCCCCC2)CCCCC1 [Compound 11, 1-(2-(Cyclododecyloxy)-2-oxoethyl)-1-(1-propyl)piperidin-1-ium iodide]

IC50 [1, 9]: 54 nM
SMILES: C[N+]1(CC(=O)OC2CCCCCCCCCCC2)CCCCCC1 [Compound 3, 1-(2-(Cyclododecyloxy)-2-oxoethyl)-1-methylazepan-1-ium iodide]

IC50 [1, 10]: 191 nM
SMILES: CN(C(=O)CO[N+]1(C)CCCCC1)C1CCCCCCCCCCC1 [Compound 18, 1-(2-(Cyclododecyl(methyl)amino)-2-oxoethoxy)-1-methylpiperidin-1ium iodide]

IC50 [1, 9]: 136 nM
SMILES: CCCC[N+]1(CC(=O)OC2CCCCCCCCCCC2)CCCCC1 [Compound 12, 1-(2-(Cyclododecyloxy)-2-oxoethyl)-1-(1-butyl)piperidin-1-ium iodide]

IC50 [1, 9]: 258 nM
SMILES: CCCCC[N+]1(CC(=O)OC2CCCCCCCCCCC2)CCCCC1 [Compound 13, 1-(2-(Cyclododecyloxy)-2-oxoethyl)-1-(1-pentyl)piperidin-1-ium iodide]

Max. Aq. Solubility [6]: 95 µM
IC50 [1, 9]: 45.6 nM
SMILES: CC1(C)CC[N+](C)(CC(=O)OC2CCCCCCCCCCC2)CC1.[I-] [Compound 4, 1-(2-(Cyclododecyloxy)-2-oxoethyl)-1,4,4-trimethylpiperidin-1-ium iodide]

IC50 [1, 9]: 77.1 nM
SMILES: C[N+]1(CC(=O)OC2CCCCC2)CCCCC1 [Compound 16, 1-(2-(Cyclohexyloxy)-2-oxoethyl)-1-methylpiperidin-1-ium iodide]

IC50 [1, 9]: 104 nM
SMILES: C[N+]1(CC(=O)OC2CCCCCCCCCCC2)CCCCC1.[I-] [Compound 1, 1-(2-(Cyclododecyloxy)-2-oxoethyl)-1-methylpiperidin-1-ium iodide]
plasma protein binding (in words) [7]: relatively high
effect in combination with olaparib (in words) (cancer cell lines; a number of cell lines): synergistic effect
potency in in vitro proliferation assays compared with olaparib (in words) (cancer cell lines): more potent than olaparib
in vivo half-life (in words) [8]: longer than expected

IC50 [1, 9]: 61.8 nM
SMILES: C[N+]1(CC(=O)OC2CCCCCCCCCCC2)CCC(Cc2ccccc2)CC1 (stereo not drawn) [Compound 9, 4-(Benzyl)-1-(2-(cyclododecyloxy)-2-oxoethyl)-1-methylpiperidin-1ium iodide]

IC50 [1, 9]: 53.7 nM
SMILES: C[N+]1(CC(=O)OC2CCCCCCCCC2)CCCCC1 [Compound 14, 1-(2-(Cyclodecyloxy)-2-oxoethyl)-1-methylpiperidin-1-ium iodide]

More lines, now with the values behind:

SMILES: C[N+]1(CC(=O)OC2CCCCCCCCCCC2)CCCC1.[I-] [Compound 2]
IC50 [1, 10]: 52.4 nM
Liver Microsomal Stability (t1/2, min) Human + NADPH [2]: < 2 min
Liver Microsomal Stability (t1/2, min) Mouse + NADPH [3]: 3.8 min

SMILES: CC(C)(C)OC(=O)N1CC[N+](C)(CC(=O)OC2CCCCCCCCCCC2)CC1.[I-] [Compound 8, 4-(tert-Butoxycarbonyl)-1-(2-(cyclodedecyloxy)-2-oxoethyl)-1-methylpiperazin-1-ium iodide]
IC50 [1, 10]: 55.8 nM
Liver Microsomal Stability (t1/2, min) Human + NADPH [2]: < 2 min
Liver Microsomal Stability (t1/2, min) Mouse + NADPH [3]: 4.1 min

SMILES: C[N+]1(CC(=O)OC2CCCCCCCCCCC2)CCOCC1.[I-] [Compound 5, 4-(2-(Cyclododecyloxy)-2-oxoethyl)-4-methylmorpholin-4-ium iodide]
IC50 [1, 9]: 34.5 nM
Max. Aq. Solubility [4]: 200 µM

SMILES: C[N+]1(CC(=O)OC2CCCC2)CCCCC1.[I-] [Compound 17, 1-(2-(Cyclopentyloxy)-2-oxoethyl)-1-methylpiperidin-1-ium iodide]
IC50 [1, 9]: 57.1 nM
Max. Aq. Solubility [4]: 200 µM

SMILES: C[N+]1(CC(=O)OC2CCCCCCCCCCC2)CCNCC1.[I-] [Compound 7, 1-(2-(Cyclododecyloxy)-2-oxoethyl)-1-methylpiperazinium iodide]
anti-clonogenic activity against BRCA-deficient NALM6 leukemia cells (in words) [5]: potent anti-clonogenic activity
IC50 [1, 9]: 466 nM

SMILES: C[N+]1(CC(=O)OC2CCCCCCC2)CCCCC1 [Compound 15, 1-(2-(Cyclooctyloxy)-2-oxoethyl)-1-methylpiperidin-1-ium iodide]
IC50 [1, 9]: 80 nM

SMILES: C[N+]1(CC(=O)OC2CCCCCCCCCCC2)CCSCC1.[I-] [Compound 6, 4-(2-(Cyclododecyloxy)-2-oxoethyl)-4-methylthiomorphilin-4-ium iodide]
IC50 [1, 10]: 156 nM
Liver Microsomal Stability (t1/2, min) Human + NADPH [2]: < 2 min
Liver Microsomal Stability (t1/2, min) Mouse + NADPH [3]: 4 min

SMILES: CC[N+]1(CC(=O)OC2CCCCCCCCCCC2)CCCCC1.[I-] [Compound 10, 1-(2-(Cyclododecyloxy)-2-oxoethyl)-1-ethylpiperidin-1-ium iodide]
IC50 [1, 9]: 174 nM
Max. Aq. Solubility [4]: 200 µM
